Data taken from doi:10.1101/2020.07.01.182642v1 (biorxiv, 2020).

Assays:
Details in all cases: binder
[1] = biological target: CAMK4 (Homo sapiens, UniProt Q16566)
[2] = biological target: ADRBK1 (Homo sapiens, UniProt P25098)
[3] = biological target: TLK1 (Homo sapiens, UniProt Q9UKI8)
[4] = biological target: DDR1 (Homo sapiens, UniProt Q08345)
[5] = biological target: CAMK2G (Homo sapiens, UniProt Q13555)
[6] = biological target: PAK2 (Homo sapiens, UniProt Q13177)
[7] = biological target: MAPK7 (Homo sapiens, UniProt Q13164)
[8] = biological target: STK32B (Homo sapiens, UniProt Q9NY57)
STK32B, sequence (Q9NY57 whole entry): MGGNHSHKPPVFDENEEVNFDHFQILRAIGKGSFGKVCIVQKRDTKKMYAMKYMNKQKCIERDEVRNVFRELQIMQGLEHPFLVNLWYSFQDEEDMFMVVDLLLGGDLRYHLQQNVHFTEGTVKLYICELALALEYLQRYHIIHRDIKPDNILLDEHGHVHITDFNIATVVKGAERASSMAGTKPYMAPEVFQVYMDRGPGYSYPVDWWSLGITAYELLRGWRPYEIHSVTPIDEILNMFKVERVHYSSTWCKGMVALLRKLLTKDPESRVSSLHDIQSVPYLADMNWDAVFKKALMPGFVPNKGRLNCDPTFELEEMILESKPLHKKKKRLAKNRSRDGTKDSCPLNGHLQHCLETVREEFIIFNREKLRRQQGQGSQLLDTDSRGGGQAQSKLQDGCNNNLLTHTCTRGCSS

[9] = biological target: ITK (Homo sapiens, UniProt Q08881)
[10] = biological target: SGK3 (Homo sapiens, UniProt Q96BR1)
[11] = biological target: LATS1 (Homo sapiens, UniProt O95835)
LATS1, sequence (O95835 whole entry): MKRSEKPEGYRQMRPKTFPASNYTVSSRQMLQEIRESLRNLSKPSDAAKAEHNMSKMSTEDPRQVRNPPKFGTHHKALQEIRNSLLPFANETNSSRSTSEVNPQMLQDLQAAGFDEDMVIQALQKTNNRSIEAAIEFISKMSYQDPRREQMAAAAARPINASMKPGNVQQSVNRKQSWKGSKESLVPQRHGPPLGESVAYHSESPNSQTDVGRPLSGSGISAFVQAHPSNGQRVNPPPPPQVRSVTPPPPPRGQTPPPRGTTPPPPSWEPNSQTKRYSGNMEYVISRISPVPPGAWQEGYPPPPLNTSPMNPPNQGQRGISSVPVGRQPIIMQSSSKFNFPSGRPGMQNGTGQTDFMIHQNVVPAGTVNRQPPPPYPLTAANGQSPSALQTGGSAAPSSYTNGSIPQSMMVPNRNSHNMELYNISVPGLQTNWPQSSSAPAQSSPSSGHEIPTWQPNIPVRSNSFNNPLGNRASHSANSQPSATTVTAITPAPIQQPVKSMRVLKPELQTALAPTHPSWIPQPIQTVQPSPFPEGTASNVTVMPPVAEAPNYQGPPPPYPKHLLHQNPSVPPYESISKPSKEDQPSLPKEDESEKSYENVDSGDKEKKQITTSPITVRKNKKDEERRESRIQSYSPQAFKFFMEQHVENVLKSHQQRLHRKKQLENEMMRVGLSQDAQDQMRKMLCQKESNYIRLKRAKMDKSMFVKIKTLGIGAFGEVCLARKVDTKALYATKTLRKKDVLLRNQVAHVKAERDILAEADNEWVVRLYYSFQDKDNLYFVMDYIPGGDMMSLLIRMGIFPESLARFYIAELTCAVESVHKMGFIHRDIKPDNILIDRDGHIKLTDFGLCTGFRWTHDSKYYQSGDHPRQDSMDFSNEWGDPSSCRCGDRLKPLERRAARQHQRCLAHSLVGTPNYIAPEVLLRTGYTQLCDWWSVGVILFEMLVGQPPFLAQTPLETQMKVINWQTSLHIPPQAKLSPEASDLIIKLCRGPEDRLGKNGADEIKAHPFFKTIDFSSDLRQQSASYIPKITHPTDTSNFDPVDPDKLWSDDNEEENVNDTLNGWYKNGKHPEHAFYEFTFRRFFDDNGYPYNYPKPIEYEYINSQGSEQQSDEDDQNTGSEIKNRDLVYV

[12] = biological target: PRKG2 (Homo sapiens, UniProt Q13237)
[13] = biological target: PAK1 (Homo sapiens, UniProt Q13153)
PAK1, sequence (Q13153 whole entry): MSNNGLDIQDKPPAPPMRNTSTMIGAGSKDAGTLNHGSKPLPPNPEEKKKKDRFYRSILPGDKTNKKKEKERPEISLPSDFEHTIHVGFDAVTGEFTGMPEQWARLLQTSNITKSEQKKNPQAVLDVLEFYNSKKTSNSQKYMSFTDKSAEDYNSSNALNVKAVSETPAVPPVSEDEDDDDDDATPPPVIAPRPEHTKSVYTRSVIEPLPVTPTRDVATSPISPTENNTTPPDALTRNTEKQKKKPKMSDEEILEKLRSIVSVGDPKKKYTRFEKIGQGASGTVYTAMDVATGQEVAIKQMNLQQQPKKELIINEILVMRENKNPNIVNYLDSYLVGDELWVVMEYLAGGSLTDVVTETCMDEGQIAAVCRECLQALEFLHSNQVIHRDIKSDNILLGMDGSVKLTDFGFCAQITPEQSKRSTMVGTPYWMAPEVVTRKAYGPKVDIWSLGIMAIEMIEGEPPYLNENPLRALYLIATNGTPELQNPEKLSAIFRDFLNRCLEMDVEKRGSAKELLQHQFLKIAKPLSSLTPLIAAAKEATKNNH

[14] = biological target: PRKX (Homo sapiens, UniProt P51817)
[15] = biological target: PRKACA (Homo sapiens, UniProt P17612)
[16] = biological target: NLK (Homo sapiens, UniProt Q9UBE8)
NLK, sequence (Q9UBE8 whole entry): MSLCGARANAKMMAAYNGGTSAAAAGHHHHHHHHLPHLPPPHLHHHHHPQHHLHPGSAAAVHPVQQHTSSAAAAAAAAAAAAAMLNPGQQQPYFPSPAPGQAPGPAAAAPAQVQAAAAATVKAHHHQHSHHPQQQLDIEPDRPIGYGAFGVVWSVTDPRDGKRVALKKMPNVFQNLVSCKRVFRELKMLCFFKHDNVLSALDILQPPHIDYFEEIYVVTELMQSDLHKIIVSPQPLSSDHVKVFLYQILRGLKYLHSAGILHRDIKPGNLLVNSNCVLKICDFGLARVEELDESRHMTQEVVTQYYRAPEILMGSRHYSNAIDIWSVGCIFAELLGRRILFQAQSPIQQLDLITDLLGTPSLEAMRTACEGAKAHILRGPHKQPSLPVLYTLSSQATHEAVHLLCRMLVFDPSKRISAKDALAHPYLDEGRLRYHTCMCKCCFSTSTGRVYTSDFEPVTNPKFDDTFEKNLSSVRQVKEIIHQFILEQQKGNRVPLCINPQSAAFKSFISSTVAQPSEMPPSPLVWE

[17] = biological target: PRKD2 (Homo sapiens, UniProt Q9BZL6)
PRKD2, sequence (Q9BZL6 whole entry): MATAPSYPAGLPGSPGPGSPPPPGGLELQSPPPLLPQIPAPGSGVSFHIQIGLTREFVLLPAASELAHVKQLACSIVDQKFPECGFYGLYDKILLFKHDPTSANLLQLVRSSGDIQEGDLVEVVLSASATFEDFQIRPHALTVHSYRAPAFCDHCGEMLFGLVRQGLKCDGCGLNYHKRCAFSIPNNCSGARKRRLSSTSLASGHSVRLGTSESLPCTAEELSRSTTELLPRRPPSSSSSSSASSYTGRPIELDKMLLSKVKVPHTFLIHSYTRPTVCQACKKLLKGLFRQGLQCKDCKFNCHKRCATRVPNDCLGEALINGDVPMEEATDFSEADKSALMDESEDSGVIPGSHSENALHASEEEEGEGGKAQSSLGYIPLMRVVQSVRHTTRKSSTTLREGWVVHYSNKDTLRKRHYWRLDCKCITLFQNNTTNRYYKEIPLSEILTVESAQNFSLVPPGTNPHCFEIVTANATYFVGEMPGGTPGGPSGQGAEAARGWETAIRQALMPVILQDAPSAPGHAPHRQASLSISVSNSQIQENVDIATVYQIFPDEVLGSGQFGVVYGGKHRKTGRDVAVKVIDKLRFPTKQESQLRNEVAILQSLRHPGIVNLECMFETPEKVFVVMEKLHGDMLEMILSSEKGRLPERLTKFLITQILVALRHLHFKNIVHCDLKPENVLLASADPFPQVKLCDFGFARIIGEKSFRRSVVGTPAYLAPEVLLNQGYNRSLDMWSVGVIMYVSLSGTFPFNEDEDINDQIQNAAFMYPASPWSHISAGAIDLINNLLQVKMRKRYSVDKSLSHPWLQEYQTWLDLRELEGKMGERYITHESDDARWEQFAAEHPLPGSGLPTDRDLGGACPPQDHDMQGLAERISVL

[18] = biological target: STK32C (Homo sapiens, UniProt Q86UX6)
[19] = biological target: STK40 (Homo sapiens, UniProt Q8N2I9)
[20] = biological target: NEK6 (Homo sapiens, UniProt Q9HC98)
[21] = biological target: TYK2 (Homo sapiens, UniProt P29597)
[22] = biological target: NEK11 (Homo sapiens, UniProt Q8NG66)
[23] = biological target: PRKCZ (Homo sapiens, UniProt Q05513)
[24] = biological target: PTK6 (Homo sapiens, UniProt Q13882)
[25] = biological target: CLK4 (Homo sapiens, UniProt Q9HAZ1)
[26] = biological target: CSNK1G2 (Homo sapiens, UniProt P78368)
[27] = biological target: RIPK2 (Homo sapiens, UniProt O43353)
RIPK2, sequence (O43353 whole entry): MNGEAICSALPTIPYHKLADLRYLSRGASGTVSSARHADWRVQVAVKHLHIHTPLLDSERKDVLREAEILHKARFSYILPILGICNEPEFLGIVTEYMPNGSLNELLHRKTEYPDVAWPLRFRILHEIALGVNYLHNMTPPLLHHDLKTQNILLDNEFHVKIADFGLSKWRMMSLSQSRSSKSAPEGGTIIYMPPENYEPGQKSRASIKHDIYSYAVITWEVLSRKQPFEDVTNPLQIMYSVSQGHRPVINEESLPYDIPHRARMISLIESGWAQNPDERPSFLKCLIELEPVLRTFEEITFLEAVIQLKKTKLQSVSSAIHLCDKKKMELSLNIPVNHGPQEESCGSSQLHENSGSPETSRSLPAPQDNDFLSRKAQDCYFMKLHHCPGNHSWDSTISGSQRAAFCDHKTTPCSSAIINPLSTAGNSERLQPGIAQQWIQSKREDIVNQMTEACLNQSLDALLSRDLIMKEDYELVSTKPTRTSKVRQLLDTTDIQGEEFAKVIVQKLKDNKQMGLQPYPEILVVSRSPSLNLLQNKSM

[28] = biological target: ERN2 (Homo sapiens, UniProt Q76MJ5)
[29] = biological target: LIMK1 (Homo sapiens, UniProt P53667)
[30] = biological target: SgK223 (Homo sapiens, UniProt Q86YV5)
[31] = biological target: FGFR4 (Homo sapiens, UniProt P22455)

DDR1, sequence (Q08345 whole entry): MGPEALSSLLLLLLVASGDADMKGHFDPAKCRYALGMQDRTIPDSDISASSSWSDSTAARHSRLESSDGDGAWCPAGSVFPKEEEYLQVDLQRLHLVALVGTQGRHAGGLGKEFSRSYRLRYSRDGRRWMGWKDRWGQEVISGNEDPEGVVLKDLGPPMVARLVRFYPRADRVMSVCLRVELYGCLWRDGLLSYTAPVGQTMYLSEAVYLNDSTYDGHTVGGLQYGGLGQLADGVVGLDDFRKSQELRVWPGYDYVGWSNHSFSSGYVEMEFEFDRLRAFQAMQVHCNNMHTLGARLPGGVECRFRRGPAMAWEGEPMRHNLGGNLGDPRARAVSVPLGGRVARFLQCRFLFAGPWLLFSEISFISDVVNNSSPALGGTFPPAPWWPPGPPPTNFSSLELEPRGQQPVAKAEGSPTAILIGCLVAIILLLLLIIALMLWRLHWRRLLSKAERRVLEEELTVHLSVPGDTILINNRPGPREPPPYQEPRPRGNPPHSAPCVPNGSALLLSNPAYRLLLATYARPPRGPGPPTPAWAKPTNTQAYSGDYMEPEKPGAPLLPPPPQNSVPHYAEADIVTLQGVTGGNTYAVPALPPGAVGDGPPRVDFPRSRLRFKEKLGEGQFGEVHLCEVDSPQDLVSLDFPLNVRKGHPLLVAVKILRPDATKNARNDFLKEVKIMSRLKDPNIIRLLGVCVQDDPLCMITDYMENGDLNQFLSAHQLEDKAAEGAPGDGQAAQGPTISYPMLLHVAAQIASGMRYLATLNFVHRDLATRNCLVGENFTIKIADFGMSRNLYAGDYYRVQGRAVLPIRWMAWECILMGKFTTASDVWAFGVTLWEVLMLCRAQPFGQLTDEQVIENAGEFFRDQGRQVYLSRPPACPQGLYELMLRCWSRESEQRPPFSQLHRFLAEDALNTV

## CCN1/C(=C/C(C)=O)Sc2ccc(OC)cc21 [compound 2, TG003]
[1]
  ΔTm inhibitor 2: -0.2 °C
[2]
  ΔTm inhibitor 2: 0.1 °C
[3]
  ΔTm inhibitor 2: -0.1 °C
[4]
  ΔTm inhibitor 2: 0.4 °C
[5]
  ΔTm inhibitor 2: 0.1 °C
[6]
  ΔTm inhibitor 2: -0.6 °C
[7]
  ΔTm inhibitor 2: 0.2 °C
[8]
  ΔTm inhibitor 2: -0.2 °C
[9]
  ΔTm inhibitor 2: 1.1 °C
[10]
  ΔTm inhibitor 2: -0.1 °C
[11]
  ΔTm inhibitor 2: 0.1 °C
[12]
  ΔTm inhibitor 2: -0.1 °C
[13]
  ΔTm inhibitor 2: 0.0 °C
[14]
  ΔTm inhibitor 2: -0.2 °C
[15]
  ΔTm inhibitor 2: -0.2 °C
[16]
  ΔTm inhibitor 2: -0.2 °C
[17]
  ΔTm inhibitor 2: 0.7 °C
[18]
  ΔTm inhibitor 2: -0.9 °C
[19]
  ΔTm inhibitor 2: 0.0 °C
[20]
  ΔTm inhibitor 2: -1.0 °C
[21]
  ΔTm inhibitor 2: 0.6 °C
[22]
  ΔTm inhibitor 2: 0.6 °C
[23]
  ΔTm inhibitor 2: -0.2 °C

## CC(=O)c1cccc(-c2cnc3ccc(NCC4CC4)nn23)c1 [compound 1, K00135]
[24]
  ΔTm inhibitor 1: 0.4 °C
[25]
  ΔTm inhibitor 1: 8.5 °C
[26]
  ΔTm inhibitor 1: 2.5 °C
[27]
  ΔTm inhibitor 1: 6.0 °C

## Nc1nccc(-c2ccc3noc(-c4ccc(Cl)cc4)c3c2)n1 [compound 4, K00972]
[28]
  ΔTm inhibitor 4: 0.4 °C
[29]
  ΔTm inhibitor 4: 0.5 °C
[30]
  ΔTm inhibitor 4: 0.4 °C
[31]
  ΔTm inhibitor 4: 0.2 °C
